# Test results taken from patent publication US7129073B2, “Regulation of neuronal function through metabotropic glutamate receptor signaling pathways” (The Rockefeller University, priority 2001, dated 2006).
# “Also recorded” adds a separate entry of the source.
# How the values were obtained:
# ER = settings: read-out: IC50, competition with fluorescein-labeled estradiol for binding to ER; FP-based assay; cited from earlier work
# [1] = system: Ser137 of DARPP-32 (CK1 site); experiment: DARPP-32 phospho-Ser137 immunoblot in neostriatal slices; type: cell-based, mouse; settings: for effect on basal phosphorylation of Ser137 / effect of pretreatment on the DHPG effect on Ser137 phosphorylation: U73122 10 μM 30 min, BAPTA/AM 20 μM; for effect of pretreatment on the DHPG effect on Ser137 phosphorylation: before DHPG 100 μM 2 min, L-AP3 100 μM 20 min, ZM241385 100 μM, cyclosporin A 5 μM 1 h
# Method: (§1) Neostriatal slices were prepared from male C57/BL6 mice (6–8 weeks old) in accordance with methods known in the art (Nishi, A. et al. 1997, J. Neurosci. 17:8147–8155). Slices were treated with a drug. After drug treatment, slices were immediately frozen in liquid nitrogen, and stored at −80° C. until assayed.
# (§2) Frozen slices were sonicated in hot homogenization buffer containing 1% SDS and 50 mM NaF, and samples were boiled for 10 minutes. SDS-PAGE sample buffer was then added and samples were boiled for 5 minutes. Samples (approximately 120 μg of total protein) were separated by SDS-PAGE (10% polyacrylamide) and then transferred to nitrocellulose. In most studies, immunoblots were first probed with anti-phospho-Ser137 DARPP-32 antibody. The blots were then stripped and probed with anti-phospho-Thr75 DARPP-32 antibody. Blots were stripped again and probed with anti-total DARPP-32 antibody. […] Chemiluminescence was detected by autoradiography and bands were quantified by analysis of scanned images using NIH IMAGE 1.52 software. Data were statistically analyzed by Student's t test in Microsoft EXCEL™ software as indicated.
# (§3) Neostriatal slices were prepared from male C57/BL6 mice (6–8 weeks old) as disclosed (22). Slices were treated with drugs as specified in the text and figure legends. After drug treatment, slices were immediately frozen in liquid nitrogen, and stored at −80° C. until assayed.
# (§4) Frozen slices were sonicated in hot homogenization buffer containing 1% SDS and 50 mM NaF, and samples were boiled for 10 min. SDS-PAGE sample buffer was then added and samples were boiled for 5 min. Samples (approximately 120 μg protein) were separated by SDS-PAGE (10% polyacrylamide) and transferred to nitrocellulose. Immunoblots were first probed with antiphospho-Ser-137 DARPP-32 antibody. The blots were stripped and probed with anti-phosphoThr-75 DARPP-32 antibody. Blots were stripped again and probed with anti-total DARPP-32 antibody. Antibody binding was detected by enhanced chemiluminescence (ECL) using X-ray film, and images were analyzed by laser scanning densitometry using NIH Image 1.52 software. Data were statistically analyzed by Student's t-test using Microsoft EXCEL™ software as indicated.
# HA-tagged CK1ε = experiment: kinase activity of HA-CK1ε immunoprecipitated from transfected N2a cells, DARPP-32 as substrate; type: cell-based; settings: 30 min before DHPG 100 μM 2 min, CKI-7 100 μM, L-AP3 100 μM, U73122 10 μM, BAPTA/AM 20 μM, cyclosporin A 1 μM
# Method: Neuroblastoma N2a cells were cultured in DMEM containing 5% fetal bovine serum (FBS) to 50–60% confluency. Four micrograms of the expression plasmid for HA-CK1ε were transfected into N2a cells in 100 mm dishes using FuGENE™ 6. Twenty-four hours after transfection, cells were incubated in phosphate-buffered Krebs-Henseleit solution (Sigma) for 10 minutes at room temperature. Cells were then incubated with or without CKI inhibitor for 30 minutes before treating with the group I mGluR agonist (S)-3,5-DHPG (100 μM) for 2 minutes. Cells were then lysed in one ml of lysis buffer containing 1% Nonidet P-40 (NP-40), 150 mM NaCl, 0.1% SDS, 50 mM Tris (pH 8.0), 5 mM Na3VO4, 20 mM NaF, 20 mM β-glycerol-phosphate and protease inhibitors. Lysates were centrifuged at 10,000 g and supernatants were used for immunoprecipitation and kinase assay.
# For immunoprecipitation of CKI from N2a cells, lysates (1 mg of total protein) were pre-cleared with 5 μl of mouse IgG and 50 μl of protein A agarose for 30 minutes. Five μl of anti-HA antibody were added and samples were incubated for 1 hour at 4° C. Five μl of anti-mouse rabbit IgG and 50 μl of protein A agarose were then added for 45 minutes. Immuno-complexes were washed three times in lysis buffer, two times in kinase buffer (30 mM Hepes (pH 7.5), 7 mM MgCl2, 0.5 mM DTT). CKI assays were performed in a 30 μl assay volume with 2 μg of purified DARPP-32, 500 μM ATP and 5 μCi γ-^32P-ATP. Samples were incubated at 30° C. for 20 minutes, reactions were stopped by addition of SDS-sample buffer, and samples were boiled for 5 minutes. Samples were separated by SDS-PAGE (12% polyacrylamide). SDS-PAGE gels were dried and exposed to Kodak film for autoradiography. Bands were quantified by analysis using a Molecular Dynamics PhosphorImager.
# Neuroblastoma N2a cells were cultured to 50–60% confluence in DMEM containing 5% fetal bovine serum. Four μg of the expression plasmid for HA-CK1ε or myc-MM2-CK1ε was transfected into N2a cells in 100 mm dishes using FuGENE6™. Twenty-four hours after transfection, cells were incubated at room temperature in phosphate-buffered Kreb's-Henseleit solution (Sigma) for 10 min and then with or without inhibitors for 30 min before treating with (S)-3,5-DHPG, for 2 min. Cells were then lysed in 1 ml of radio-immunoprecipitation (RIPA) buffer containing 1% NP-40, 150 mM NaCl, 0.1% SDS, 50 mM Tris, pH 8.0, 5 mM Na3VO4, 20 mM NaF, 20 mM β-glycerol-phosphate and protease inhibitors. Lysates were centrifuged at 10,000 g, and supernatants were used for immunoprecipitation and kinase assay.
# For immunoprecipitation of CK1ε from N2a cells, lysates (1 mg of total protein) were precleared with 5 μl of mouse IgG (ICN) and 50 μl of protein A agarose for 30 min. Five μl (approximately 2 μg) of anti-HA or anti-myc antibody was added and samples were incubated for 1 h at 4° C. Five μl of anti-mouse rabbit IgG and 50 μl of protein A agarose were then added for 45 min. Immuno-complexes were washed 3 times in lysis buffer and 2 times in kinase buffer (30 mM Hepes, pH 7.5, 7 mM MgCl2, 0.5 mM DTT).
# (§5) CK1 assays were performed in a 30 μl assay volume with 2 μg of purified DARPP-32, 500 μM ATP and 5 μCi γ-^32P-ATP. Reactions were started by addition of the ATP. Samples were incubated at 30° C. for 10 min and reactions were stopped by addition of SDS-sample buffer and boiled for 5 min. Samples were separated by SDS-PAGE (12% polyacrylamide). SDS-PAGE gels were dried and exposed to Kodak film for autoradiography. Results were quantified using a Molecular Dynamics PHOSPHORIMAGER™. Immunoprecipitation and assay of Cdk5 were performed as disclosed (20).
# Cdk5 = Cdk5 kinase activity immunoprecipitated from neostriatal slices, histone H-1 as substrate; type: cell-based, mouse; settings: for effect of pretreatment on the effect of DHPG on Cdk5 kinase activity: CKI-7 dose-dependent, U73122 10 μM, BAPTA/AM 20 μM, cyclosporin A 5 μM
# Method: as §1
# For Cdk5 immunoprecipitation, striatal tissue slices (approximately 150 μg total protein) were lysed using a Dounce homogenizer and 1 ml of lysis buffer (150 mM NaCl, 20 mM Tris-HCl (pH 7.4), 1 mM EDTA, 0.5% NP-40, 5 mM NaF, 5 mM Na3PO4 and protease inhibitors). Lysates were centrifuged at 10,000 g for 10 minutes at 4° C. Supernatants were pre-cleared by adding rabbit IgG-conjugated agarose for 40 minutes at 4° C. Ten μl of Cdk5 antibody conjugated to agarose were added and samples were incubated for 1 hour at 4° C. with mixing. Agarose pellets were collected and washed three times with 1 ml of lysis buffer and two times with kinase assay buffer (50 mM Hepes (pH 7.5), 10 mM MgCl2, 1 mM DTT). Cdk5 kinase assays were performed in a 30-μl reaction mixtures with 2 μg Histone H-1, 500 μM ATP and 5 μCi of γ-^32P-ATP. Samples were incubated at 30° C. for 10 minutes, reactions were stopped by addition of SDS-sample buffer, and samples were boiled for 5 minutes. Samples were separated by SDS-PAGE and analyzed as disclosed above for CKI assays. Data were analyzed by Student's t-test in Microsoft Excel software as indicated, with significance defined as p<0.05.
# as §5
# [2] = system: Thr75 of DARPP-32 (Cdk5 site); experiment: DARPP-32 phospho-Thr75 immunoblot in neostriatal slices; type: cell-based, mouse; settings: for effect on basal phosphorylation of Thr75 / effect of pretreatment on the DHPG effect on Thr75 phosphorylation: U73122 10 μM 30 min, BAPTA/AM 20 μM; for effect of pretreatment on the DHPG effect on Thr75 phosphorylation: before DHPG 100 μM 2 min, L-AP3 100 μM 20 min, ZM241385 100 μM, cyclosporin A 5 μM 1 h
# Method: as §1, §2, §3, §4
# [3] = system: voltage-dependent Ca2+ channels; experiment: whole-cell recordings of voltage-dependent Ca2+ channels in dissociated neostriatal neurons; type: cell-based, mouse; settings: CK1–7 100 μM, butyrolactone 25 μM (FIG. 6)
# Method: Neostriatal neurons from 3- to 4-week-old mice were acutely dissociated by using procedures similar to those disclosed in Eberwine et al. (1995, Prog. Brain Res. 105:117–126). Whole-cell current recordings used standard voltage-clamp techniques. The internal solution consisted of 180 mM N-methyl-D-glucamine, 40 mM Hepes, 4 mM MgCl2, 0.5 mM 1,2-bis(2-aminophenoxy)ethane-N,N,N′,N′-tetraacetate, 12 mM phosphocreatine, 2 mM Na2ATP, 0.2 mM Na3GTP, 0.1 mM leupeptin (pH 7.2–7.3), 265–270 mosm/liter. The external solution consisted of 135 mM NaCl, 20 mM CsCl, 1 mM MgCl2, 10 mM Hepes, 0.001 mM tetrodotoxin, 5 mM BaCl2, 10 mM glucose (pH 7.3), 300–305 mosm/liter. Recordings were obtained with an Axon Instruments 200B patch clamp amplifier that was controlled and monitored with an IBM PC running PCLAMP™ (v. 8) with a DigiData 1320 series interface (Axon Instruments, Foster City, Calif.). Electrode resistances were typically 2–4 MΩ in the bath. After seal rupture, series resistance (4–10 MΩ) was compensated (70–90%) and periodically monitored. Drugs were applied with a gravity-fed “sewer pipe” system. The array of application capillaries was positioned 250 μm from the cell under study. Solution changes were effected by altering the position of the array with a DC drive system controlled by a microprocessor-based controller (Newport-Klinger, Irvine, Calif.). Data analyses were performed with AXOGRAPH™ (Axon Instruments), […]™ (Albeck Software, Reading, Pa.), and […]™ (Abacus Concepts, Berkeley, Calif.).
# [4] = 1 μM butyrolactone, 30 min before DHPG 2 min
# [5] = butyrolactone 5 μM and 10 μM, 30 min before DHPG 2 min
# [6] = slices treated with drug alone: DHPG 100 μM, ionomycin 2 μM
compound,measurement,setting,value
4-OH-tamoxifen,IC50,ER,26 nM
17β-estradiol,IC50,ER,5.6 nM
CC(=O)OCOC(=O)CN(CC(=O)OCOC(C)=O)c1ccccc1OCCOc1ccccc1N(CC(=O)OCOC(C)=O)CC(=O)OCOC(C)=O [BAPTA/AM],effect on basal phosphorylation of Ser137,[1],did not change
same,effect of pretreatment on the DHPG effect on Ser137 phosphorylation,[1],abolished
same,effect of pre-incubation on the ability of DHPG to increase CK1ε activity,HA-tagged CK1ε,abolished
same,effect of pretreatment on the effect of DHPG on Cdk5 kinase activity,Cdk5,abolished
same,effect on basal phosphorylation of Thr75,[2],did not change
same,effect of pretreatment on the DHPG effect on Thr75 phosphorylation,[2],abolished
N[C@@H](CP(=O)(O)O)C(=O)O [L-AP3],effect of pretreatment on the DHPG effect on Ser137 phosphorylation,[1],blocked
same,effect of pre-incubation on the ability of DHPG to increase CK1ε activity,HA-tagged CK1ε,blocked
same,effect of pretreatment on the DHPG effect on Thr75 phosphorylation,[2],blocked
COc1ccc2c(c1)CC[C@@H]1[C@@H]2CC[C@]2(C)[C@@H](NCCCCCCN3C(=O)C=CC3=O)CC[C@@H]12 [U73122],effect on basal phosphorylation of Ser137,[1],did not change
same,effect of pretreatment on the DHPG effect on Ser137 phosphorylation,[1],abolished
same,effect of pre-incubation on the ability of DHPG to increase CK1ε activity,HA-tagged CK1ε,abolished
same,effect of pretreatment on the effect of DHPG on Cdk5 kinase activity,Cdk5,abolished
same,effect on basal phosphorylation of Thr75,[2],did not change
same,effect of pretreatment on the DHPG effect on Thr75 phosphorylation,[2],abolished
Nc1nc(NCCc2ccc(O)cc2)nc2nc(-c3ccco3)nn12 [ZM241385],effect of pretreatment on the DHPG effect on Ser137 phosphorylation,[1],did not affect
same,effect of pretreatment on the DHPG effect on Thr75 phosphorylation,[2],did not affect
O=C1CCCO1 [butyrolactone],effect on basal Ca2+ currents,[3],significant reduction; also recorded: reduced
same,effect on the enhancement of Ca2+ currents by DHPG,[3]; DHPG 100 μM,eliminated
same,effect on basal or DHPG-stimulated DARPP-32 phosphorylation at Ser137,[1]; [4],little effect
same,effect on basal and DHPG-stimulated phosphorylation of Ser137,[1]; [5],unaffected
same,effect on basal or DHPG-stimulated DARPP-32 phosphorylation at Thr75,[2]; [4],little effect
same,effect on basal and DHPG-stimulated phosphorylation of Thr75,[2]; [5],decreased in a dose-dependent manner
C[C@H](CCC(=O)O)C[C@H](C)C[C@H](C)C(=O)/C=C(\O)[C@H](C)C[C@H](C)C/C=C/[C@@H](C)[C@@H](O)[C@@H](C)[C@@H](O)C[C@@H]1CC[C@@](C)([C@H]2CC[C@@](C)([C@@H](C)O)O2)O1 [ionomycin],effect on phosphorylation of Ser137 in DARPP-32,[1]; [6],increased phosphorylation
same,increase in Cdk5 kinase activity,Cdk5; ionomycin 2 μM for 2 min,2 fold
same,effect on phosphorylation of Thr75 in DARPP-32,[2]; [6],increased phosphorylation
